According to patent US7923461B2, “TNF-α production inhibitors” (Santen Pharmaceutical Co., Ltd., priority 2000, dated 2011):

Tested on: not given
Test: not given
Conditions: not given

Compound | melting point [°C]
O=C(NCCCc1ccncc1)N(CC=Cc1ccccc1)CCC12CC3CC(CC(C3)C1)C2 [Compound No. 1-34, 1-[2-(1-Adamantyl)ethyl]-1-cinnamyl-3-[3-(4-pyridyl)propyl]urea] | 130 to 134.5
O=C(NCCCc1ccncc1)N(CCC12CC3CC(CC(C3)C1)C2)Cc1ccco1 [Compound No. 1-42, 1-[2-(1-Adamantyl)ethyl]-1-furfuryl-3-[3-(4-pyridyl)propyl]urea] | 128 to 130
O=C(NCCCc1ccncc1)N(CCC12CC3CC(CC(C3)C1)C2)Cc1ccccc1 [Compound No. 1-43, 1-[2-(1-Adamantyl)ethyl]-1-benzyl-3-[3-(4-pyridyl)propyl]urea] | 130.5 to 135
CCCCCNC(=O)N(CCCc1ccncc1)CCC12CC3CC(CC(C3)C1)C2 [Compound No. 1-66, 1-[2-(1-Adamantyl)ethyl]-3-pentyl-1-[3-(4-pyridyl)propyl]urea] | 47 to 50
CC(C)N(CCC12CC3CC(CC(C3)C1)C2)C(=O)NCCCc1ccncc1 [Compound No. 1-68, 1-[2-(1-Adamantyl)ethyl]-1-isopropyl-3-[3-(4-pyridyl)propyl]urea] | 132 to 134
O=C(NCCCc1ccncc1)N(CCC12CC3CC(CC(C3)C1)C2)C1CCCC1 [Compound No. 1-70, 1-[2-(1-Adamantyl)ethyl]-1-cyclopentyl-3-[3-(4-pyridyl)propyl]urea] | 135.5 to 137.5
CCCCCN(CCC12CC3CC(CC(C3)C1)C2)C(=O)NCCCc1cccnc1 [Compound No. 1-84, 1-[2-(1-Adamantyl)ethyl]-1-pentyl-3-[3-(3-pyridyl)propyl]urea] | 99.9 to 105.2
CCCCCN(CCC12CC3CC(CC(C3)C1)C2)C(=O)NC(C)CCc1ccncc1 (stereo not shown) [Compound No. 1-137, 1-[2-(1-Adamantyl)ethyl]-3-[1-methyl-3-(4-pyridyl)propyl]-1-pentylurea] | 128.5 to 129

Tested on: TNF-α production
Test: Inhibitory effects on TNF-α production induced by lipopolysaccharide (LPS) stimulation, in vivo test
Set-up: species or system rat
Conditions: Rattus norvegicus, 2 h; female rats, oral administration of 3 mg/kg immediately after LPS to footpad; plasma TNF-α (ELISA) two hours after LPS; read-out: Inhibition rate (%) of TNF-α production
Method: Inhibitory effects on TNF-α production induced by lipopolysaccharide (LPS) stimulation were studied by in vivo tests according to the method of Tsuji et al. (Inflamm res. 46 (1997) 193-198).
Female rats (five per group), body weight of about 200 g, about eight weeks old, were used as test animals. LPS from Salmonella was dissolved in physiological saline to prepare an LPS solution (1 mg/ml). Each test substance was dissolved or uniformly suspended in a 1% methylcellulose solution to give test substance-preparation liquids.
The above-mentioned LPS solution (0.5 ml/kg) was administered to a footpad of the rat. Immediately after the LPS administration, the test substance-preparation liquid (containing 10 mg/kg or 3 mg/kg test substance) was orally administered. Two hours after the LPS administration, blood was collected from abdominal aorta and was centrifuged at 4° C. and 3000 rpm for ten minutes. TNF-α levels in the obtained plasma were measured with a rat TNF-α-specific ELISA kit. TNF-α was not observed in the plasma with respect to an LPS-non-administered group (control).
Inhibition rates of TNF-α production of the test substances were determined by the following equation. Inhibition rate (%)=[(A−B)/A]×100 A: TNF-α level in plasma of test substance-nonadministered group B: TNF-α level in plasma of test substance-administered group (Results)

Compound | inhibition in vivo at 3 mg/kg [%]
CCCCCN(CCC12CC3CC(CC(C3)C1)C2)C(=O)NCCCc1cccnc1 [Compound No. 1-84, 1-[2-(1-Adamantyl)ethyl]-1-pentyl-3-[3-(3-pyridyl)propyl]urea] | 35.5
CCCCCN(CCC12CC3CC(CC(C3)C1)C2)C(=O)NC(C)CCc1ccncc1 (stereo not shown) [Compound No. 1-137, 1-[2-(1-Adamantyl)ethyl]-3-[1-methyl-3-(4-pyridyl)propyl]-1-pentylurea] | 82.1

Same assay, conditions: Rattus norvegicus, 2 h; female rats, oral administration of 10 mg/kg immediately after LPS to footpad; plasma TNF-α (ELISA) two hours after LPS; read-out: Inhibition rate (%) of TNF-α production

Compound | inhibition in vivo at 10 mg/kg [%]
O=C(NCCCc1ccncc1)N(CC=Cc1ccccc1)CCC12CC3CC(CC(C3)C1)C2 [Compound No. 1-34, 1-[2-(1-Adamantyl)ethyl]-1-cinnamyl-3-[3-(4-pyridyl)propyl]urea] | 70.8
O=C(NCCCc1ccncc1)N(CCC12CC3CC(CC(C3)C1)C2)Cc1ccco1 [Compound No. 1-42, 1-[2-(1-Adamantyl)ethyl]-1-furfuryl-3-[3-(4-pyridyl)propyl]urea] | 86.7
O=C(NCCCc1ccncc1)N(CCC12CC3CC(CC(C3)C1)C2)Cc1ccccc1 [Compound No. 1-43, 1-[2-(1-Adamantyl)ethyl]-1-benzyl-3-[3-(4-pyridyl)propyl]urea] | 67.6
CCCCCNC(=O)N(CCCc1ccncc1)CCC12CC3CC(CC(C3)C1)C2 [Compound No. 1-66, 1-[2-(1-Adamantyl)ethyl]-3-pentyl-1-[3-(4-pyridyl)propyl]urea] | 79.4
CC(C)N(CCC12CC3CC(CC(C3)C1)C2)C(=O)NCCCc1ccncc1 [Compound No. 1-68, 1-[2-(1-Adamantyl)ethyl]-1-isopropyl-3-[3-(4-pyridyl)propyl]urea] | 79
O=C(NCCCc1ccncc1)N(CCC12CC3CC(CC(C3)C1)C2)C1CCCC1 [Compound No. 1-70, 1-[2-(1-Adamantyl)ethyl]-1-cyclopentyl-3-[3-(4-pyridyl)propyl]urea] | 87.9
